Where only a bound is given, the exact number is not on record here.

The source of these data is ChEMBL document CHEMBL5032537, “Synthetic development of sugar amino acid oligomers towards novel podophyllotoxin analogues” (Bioorg Med Chem, 2021).

The subject of one assay is HT-29. As to the kind of experiment: Antiproliferative activity against human HT-29 cells assessed as inhibition of cell proliferation measured after 48 hrs by SRB assay. Type of assay: functional, cell-based. As to conditions: HT-29, 48 h.
The test system of another assay is HT-1080. In words: Antiproliferative activity against human HT-1080 cells assessed as inhibition of cell proliferation measured after 48 hrs by SRB assay. Type of assay: functional, cell-based. The conditions noted are these: HT-1080, 48 h. In general terms: Sulforhodamine B stains cellular protein and so reports cell mass.
Another assay relates to M21. As to the kind of experiment: Antiproliferative activity against human M21 cells assessed as inhibition of cell proliferation measured after 48 hrs by SRB assay. As to conditions: M21, 48 h. Type of assay: functional, cell-based.
The subject of the next assay is HaCaT. In words: Antiproliferative activity against human HaCaT cells assessed as inhibition of cell proliferation measured after 48 hrs by SRB assay. Type of assay: cell-based.

The term IC50 denotes the point on the concentration scale where inhibition reaches its midpoint. Regarding `COc1cc([C@@H]2c3cc4c(cc3[C@@H](N=[N+]=[N-])[C@H]3COC(=O)[C@H]23)OCO4)cc(OC)c1O`, the IC50 worked out at 600 nM with HT-29, 600 nM in the assay on HT-1080, 600 nM in the assay with M21 and 500 nM in the assay on HaCaT.
In the case of `COc1cc([C@@H]2c3cc4c(cc3[C@@H](n3cc(CNC(=O)[C@@H]5O[C@H](OC)[C@H](O)[C@@H](O)[C@@H]5O)nn3)[C@H]3COC(=O)[C@H]23)OCO4)cc(OC)c1O`, the IC50 in the assay on HT-29, in the assay with HT-1080, in the assay on M21 and in the assay on HaCaT was > 100000 nM in each case.
Consider `COc1cc([C@@H]2c3cc4c(cc3[C@@H](n3cc(CNC(=O)[C@@H]5O[C@H](OC)[C@H](N)[C@@H](O)[C@@H]5O)nn3)[C@H]3COC(=O)[C@H]23)OCO4)cc(OC)c1O`, for which the IC50 in the assay on HT-29, in the assay on HT-1080, in the assay with M21 and in the assay with HaCaT was > 100000 nM in each case.
Take `COc1cc([C@@H]2c3cc4c(cc3[C@@H](n3cc(CNC(=O)[C@H]5O[C@H](OC)[C@H](NC(=O)OC(C)(C)C)[C@@H](O)[C@@H]5O)nn3)[C@H]3COC(=O)[C@H]23)OCO4)cc(OC)c1O`: the IC50 in the assay on HT-29, in the assay on HT-1080, in the assay on M21 and in the assay on HaCaT was > 1000 nM throughout.
In the case of `COc1cc([C@@H]2c3cc4c(cc3[C@@H](n3cc(CNC(=O)[C@@H]5O[C@H](OC)[C@H](NC(C)=O)[C@@H](O)[C@@H]5O)nn3)[C@H]3COC(=O)[C@H]23)OCO4)cc(OC)c1O`, the IC50 with HT-29, in the assay with HT-1080, in the assay with M21 and in the assay on HaCaT was > 100000 nM each time.
Turning to `COc1cc([C@@H]2c3cc4c(cc3[C@@H](O)[C@H]3COC(=O)[C@H]23)OCO4)cc(OC)c1O` [4'-DEMETHYLEPIPODOPHYLLOTOXIN], the IC50 came to 150 nM in the assay on HT-29, 110 nM in the assay with HT-1080, 170 nM in the assay with M21 and 160 nM with HaCaT.
`COc1ccc(/C=C\c2cc(OC)c(OC)c(OC)c2)cc1O` [COMBRETASTATIN A4]: the IC50 in the assay with HT-29 was > 1000 nM; with HT-1080 it was 2.6 nM; in the assay on M21, 1.9 nM; in the assay on HaCaT it was 3.4 nM.
For `COc1cc([C@@H]2c3cc4c(cc3[C@@H](O[C@@H]3O[C@@H]5CO[C@@H](C)O[C@H]5[C@H](O)[C@H]3O)[C@H]3COC(=O)[C@H]23)OCO4)cc(OC)c1O` [ETOPOSIDE], in that order: 9000 nM, 2000 nM, 200 nM and 6000 nM.
